We go through seven molecules from PubChem BioAssay (NCI).

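Where inhibition never reached the appropriate level, the endpoint shown equals the highest concentration tested. Otherwise, values were interpolated linearly from a five-concentration, 48-hour dose response in 96-well plates. TGI: concentration producing complete growth inhibition.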

Test systems include MCF7 breast; 786-0 renal; CCRF-CEM leukemia; SK-OV-3 ovarian; OVCAR-4 ovarian; SF-268 CNS; SNB-19 CNS; HCC-2998 colon; SK-MEL-2 melanoma; BT-549 breast; TK-10 renal; HOP-62 NSCLC; SF-539 CNS; OVCAR-8 ovarian; HOP-92 NSCLC; SK-MEL-5 melanoma.
Common to all, as to test: growth of human tumour cells (NCI), 48 h

`CCN1CCC(O)(c2ccc(Oc3ccc(Cl)cc3)cc2)C(C(=O)c2ccc(Oc3ccc(Cl)cc3)cc2)C1` (configuration not stated): the TGI was determined as 19.9 µM with MCF7 breast; 12.3 µM in the assay with 786-0 renal; 20.9 µM in the assay with CCRF-CEM leukemia; 38.9 µM in the assay with SK-OV-3 ovarian; 32.7 µM with OVCAR-4 ovarian; 44.3 µM in the assay on SF-268 CNS. Moreover, the TGI in the assay on SNB-19 CNS was 29.3 µM; with HCC-2998 colon it was 25 µM; in the assay with SK-MEL-2 melanoma, 36.9 µM; in the assay with BT-549 breast, 29.7 µM; with TK-10 renal it was 23 µM; in the assay on HOP-62 NSCLC it was 21.3 µM. Further, the TGI in the assay on SF-539 CNS turned out to be 30.3 µM; in the assay with OVCAR-8 ovarian, 38.6 µM; in the assay with HOP-92 NSCLC, 24.8 µM; in the assay with SK-MEL-5 melanoma, 24.7 µM.
Consider `N#Cc1ccc(C(O)C(F)(F)c2nc3ccccc3o2)cc1` (configuration not stated), for which the TGI with MCF7 breast, with 786-0 renal, with CCRF-CEM leukemia, in the assay with SK-OV-3 ovarian, with OVCAR-4 ovarian and with SF-268 CNS was greater than 100 µM throughout. Also, the TGI with SNB-19 CNS, in the assay on HCC-2998 colon, in the assay with SK-MEL-2 melanoma, in the assay on BT-549 breast, with TK-10 renal and with HOP-62 NSCLC was greater than 100 µM each time. Besides, the TGI in the assay with SF-539 CNS, in the assay on OVCAR-8 ovarian, in the assay on HOP-92 NSCLC and in the assay on SK-MEL-5 melanoma was greater than 100 µM each time.
With `COc1ccc(C(=O)C#Cc2cn(C3CC(O)C(CO)O3)c(=O)[nH]c2=O)cc1` (configuration not stated), the TGI in the assay with MCF7 breast is greater than 100 µM; with 786-0 renal, greater than 100 µM; in the assay on CCRF-CEM leukemia, greater than 10 µM; with SK-OV-3 ovarian, greater than 100 µM; in the assay with OVCAR-4 ovarian it was greater than 100 µM; with SF-268 CNS, greater than 100 µM. Moreover, the TGI in the assay with SNB-19 CNS is greater than 100 µM; in the assay on HCC-2998 colon, greater than 100 µM; in the assay on SK-MEL-2 melanoma, greater than 100 µM; in the assay on BT-549 breast, 40.4 µM; with TK-10 renal, greater than 100 µM; with HOP-62 NSCLC it was greater than 100 µM. Moreover, the TGI is 45.1 µM in the assay with SF-539 CNS, greater than 100 µM with OVCAR-8 ovarian, 45.9 µM in the assay on HOP-92 NSCLC and greater than 100 µM in the assay with SK-MEL-5 melanoma.
On to `COc1ccc2c(c1)Cc1c(NCCN(C)C)ccc(C(=O)NCCCN(C)CCCNC(=O)c3ccc(NCCN(C)C)c4c3Nc3ccc(OC)cc3C4)c1N2`, for which the TGI turned out to be 0.615 µM in the assay with MCF7 breast; 0.985 µM with 786-0 renal; 5.49 µM in the assay on CCRF-CEM leukemia; 0.502 µM with SK-OV-3 ovarian; 0.448 µM in the assay with OVCAR-4 ovarian; 0.327 µM with SF-268 CNS. Further, the TGI in the assay on SNB-19 CNS was 1.13 µM; in the assay with HCC-2998 colon it was 0.168 µM; in the assay on SK-MEL-2 melanoma, 0.226 µM; in the assay on BT-549 breast it was 1.5 µM; with TK-10 renal it was 4.88 µM; with HOP-62 NSCLC, 1.02 µM. In addition, the TGI in the assay on SF-539 CNS was 2.24 µM; with OVCAR-8 ovarian it was 2.86 µM; with HOP-92 NSCLC, 2.79 µM; with SK-MEL-5 melanoma it was 1.72 µM.
Turning to `Cc1cc(NC2=CC(=O)C(=O)c3ccccc32)no1`, the TGI in the assay with MCF7 breast came to 7.66 µM; with 786-0 renal, 30.4 µM; in the assay with CCRF-CEM leukemia it was 40.9 µM; in the assay with SK-OV-3 ovarian it was 40.3 µM; in the assay on OVCAR-4 ovarian, 21.4 µM; in the assay with SF-268 CNS, 31.2 µM. In addition, the TGI in the assay with SNB-19 CNS stood at 31.9 µM; in the assay on HCC-2998 colon, 35.2 µM; in the assay on SK-MEL-2 melanoma, 10.4 µM; with BT-549 breast it was 13.4 µM; in the assay on TK-10 renal, 63.4 µM; in the assay with HOP-62 NSCLC, 32.5 µM. The TGI came out at 13.4 µM in the assay with SF-539 CNS, 29.4 µM with OVCAR-8 ovarian, 30.1 µM with HOP-92 NSCLC and 6.57 µM with SK-MEL-5 melanoma.
In the case of `CC1=NN(c2nc(N)nc(CN3CCOCC3)n2)C(C)(C)C1`, the TGI in the assay on MCF7 breast is greater than 100 µM; in the assay on 786-0 renal, 31.2 µM; with CCRF-CEM leukemia, 90.8 µM; in the assay on SK-OV-3 ovarian, greater than 100 µM; in the assay on OVCAR-4 ovarian it was 45.7 µM; with SF-268 CNS, greater than 100 µM. The TGI with SNB-19 CNS, in the assay with HCC-2998 colon, in the assay on SK-MEL-2 melanoma, in the assay with BT-549 breast, with TK-10 renal and in the assay with HOP-62 NSCLC was greater than 100 µM throughout. Also, the TGI with SF-539 CNS, with OVCAR-8 ovarian, in the assay with HOP-92 NSCLC and in the assay on SK-MEL-5 melanoma was greater than 100 µM each time.
Take `CO/C=C/C=C(\C#N)C(=O)OC`: the TGI with MCF7 breast, with 786-0 renal, with CCRF-CEM leukemia, in the assay with SK-OV-3 ovarian, in the assay on OVCAR-4 ovarian and in the assay with SF-268 CNS was greater than 100 µM each time. In addition, the TGI in the assay with SNB-19 CNS, in the assay with HCC-2998 colon, in the assay on SK-MEL-2 melanoma, in the assay on BT-549 breast, with TK-10 renal and in the assay with HOP-62 NSCLC was greater than 100 µM throughout. Further, the TGI with SF-539 CNS, in the assay with OVCAR-8 ovarian, with HOP-92 NSCLC and with SK-MEL-5 melanoma was greater than 100 µM each time.
